{
  "source": "patent US9895338B1",
  "about": "“Cobalt-polypyridyl complex for treatment of cancer, a pharmaceutical composition and a kit comprising it” (Macau University of Science and Technology, priority 2016, dated 2018)",
  "key": {"[1]": {"test_system": "LC3-II protein conversion", "assay": "Western blotting of LC3-I to LC3-II conversion", "assay_type": "cell-based", "settings": "Western blot; complex at 10 μM and 20 μM", "method": "After drug treatment, adherent and floating cells were lysed with RIPA lysis buffer. Protein concentrations were determined using the Bio-Rad protein assay (Bio-Rad Laboratories, Inc., Hercules, Calif., USA). The cell lysates of samples were subjected to electrophoresis on SDS polyacrylamide gels and transferred to Hybond enhanced chemiluminescence nitrocellulose membranes (Amersham Biosciences, Piscataway, N.J.), which were then blocked with 5% non-fat dry milk protein for 1 h. Membranes were then incubated with the indicated primary antibodies overnight at 4° C. The binding of the antibody was visualized by peroxidase-coupled secondary antibody using the ECL Western Blotting Detection Reagents (Invitrogen, Paisley, Scotland, UK). Band intensities were quantified by using the software ImageJ (NIH, Bethesda, Md., USA)."}, "A549 (lung cancer)": {"test_system": "A549 (lung cancer)", "assay": "MTT cytotoxicity assay, A549", "assay_type": "cell-based", "settings": "72 h", "method": "(§1) All prepared cobalt-polypyridyl complexes were dissolved in DMSO at a final concentration of 50 mmol/L and stored at −20° C. before use. Cytotoxicity was assessed by using the 3-(4,5-dimethylthiazol-2-yl)-2,5-diphenyltetrazolium bromide (MTT) (5.0 mg/ml) assay as previously described (Wong, V. K. et al., Cell Death Dis, 2013, 4, e720). Briefly, 4×10^3 cells per well were seeded in 96-well plates before drug treatments. After overnight culture, the cells were then exposed to different concentrations of selected compounds (0.039-100 μmol/L) for 72 h. Cells without drug treatment were used as control. Subsequently, MTT (10 μL) solution was added to each well and incubated at 37° C. for 4 h followed by the addition of 100 μL solubilization buffer (10% SDS in 0.01 mol/L HCl) and overnight incubation. A570 nm was then determined in each well on the next day. The percentage of cell viability was calculated using the following formula: Cell viability (%)=Atreated/Acontrol×100. Data were obtained from three independent experiments. Cells include HeLa cells (cervical cancer), MCF-7 (breast cancer), H1299, H1975, A549 and LLC-1 (lung cancer), HepG2 and Hep3B (liver cancer) and LO2 (normal human hepatocytes)."}, "MCF-7 (breast cancer)": {"test_system": "MCF-7 (breast cancer)", "assay": "MTT cytotoxicity assay, MCF-7", "assay_type": "cell-based", "settings": "MCF-7, MTT, 72 h", "method": "as §1"}, "H1299 (lung cancer)": {"test_system": "H1299 (lung cancer)", "assay": "MTT cytotoxicity assay, H1299", "assay_type": "cell-based, human", "settings": "72 h", "method": "as §1"}, "[2]": {"test_system": "OV2008/C13 cervical cancer cells", "assay": "MTT cytotoxicity, OV2008/C13 (cisplatin-resistant)", "assay_type": "cell-based", "method": "as §1, with “experiments.” for “experiments. Cells include HeLa cells (cervical cancer), MCF-7 (breast cancer), H1299, H1975, A549 and LLC-1 (lung cancer), HepG2 and Hep3B (liver cancer) and LO2 (normal human hepatocytes).”\nCisplatin-sensitive or -resistant A2780, OV2008 and C13 cancer cells were provided by Prof. Benjamin Tsang (Department of Obstetrics and Gynecology and Department of Cellular and Molecular Medicine, University of Ottawa, Canada). HCT116 p53^+/+ and p53^−/− isogenic human colon cancer cells were provided by Professor Bert Vogelstein (Ludwig Center at Johns Hopkins, Howard Hughes Medical Institute, USA). All media were supplemented with 10% fetal bovine serum and the antibiotics penicillin (50 U/ml) and streptomycin (50 μg/ml; Invitrogen, Paisley, Scotland, UK). All cell cultures were incubated at 37° C. in a 5% humidified CO2 incubator."}, "[3]": {"test_system": "Taxol-resistant A549 cancer cells", "assay": "MTT cytotoxicity, taxol-resistant A549", "assay_type": "cell-based", "method": "as §1, with “experiments.” for “experiments. Cells include HeLa cells (cervical cancer), MCF-7 (breast cancer), H1299, H1975, A549 and LLC-1 (lung cancer), HepG2 and Hep3B (liver cancer) and LO2 (normal human hepatocytes).”\nAll cells were obtained from the American Type Culture Collection (Rockville, Md., USA) unless otherwise specified. Immortalized wild-type and Atg7-deficient mouse embryonic fibroblasts (MEFs) were provided by Professor Masaaki Komatsu (Juntendo University, School of Medicine, Japan). Taxol-resistant types of A549, MCF-7, HCT-8 cancer cells, cisplatin-resistant SGC7901 cancer cells were purchased from KeyGEN BioTECH, China."}, "[4]": {"assay": "Body weight in mouse lung cancer xenograft model", "assay_type": "in vivo", "settings": "IP 40 mg/kg/day, tumor-bearing mice", "from_the_text": "The mice were maintained under specific pathogen-free condition in a 12-h light-dark cycle. Experimental conditions were followed in accordance to the “Institutional AnimalCare and User Committee guidelines” of the Macau University of Science and Technology. Xenograft mouse model was constructed as previously described (Wong, V. K. et al., Oncotarget, 2016, 7, 9907-9924). LLC-1 Lewis lung cancer cells (1×10^6 cells) were subcutaneously injected in the right dorsal region of the mice. After tumors grew to about 100 mm^3, the mice were randomly divided into 3 groups: 1) the control group, 2) 40 mg/kg cobalt-polypyridyl complex of Formula (IV) group, and 3) 40 mg/kg cobalt-polypyridyl complex of Formula (IV) as chloride, also referenced as (IV)-Cl (water soluble form) group. The cobalt-polypyridyl complex of Formula (IV) was dissolved in 100 μL buffer (PEG400:EtOH:ddH2O=6:1:3), whereas (IV)-Cl (water soluble form) was dissolved in ddH2O. The complexes were then intraperitoneal injected in mice every day. The body weight of each mouse was recorded with the tumor volume determined by Vernier caliper using the formula of L×W^2×0.52, where L is the longest diameter of tumor and W is the shortest diameter of tumor. Mice with tumor implants were sacrificed after 10 days when the tumor size of vehicle control group reached above 1000 mm^3 due to animal ethical issue."}, "[5]": {"test_system": "Taxol-sensitive MCF-7 cancer cells", "assay": "MTT cytotoxicity, taxol-sensitive MCF-7", "assay_type": "cell-based", "settings": "MCF-7, MTT, 72 h", "method": "as §1, with “experiments.” for “experiments. Cells include HeLa cells (cervical cancer), MCF-7 (breast cancer), H1299, H1975, A549 and LLC-1 (lung cancer), HepG2 and Hep3B (liver cancer) and LO2 (normal human hepatocytes).”"}, "[6]": {"test_system": "human H1299 lung cancer cells", "settings": "H1299, sub-lethal doses 0.2, 0.5, 1.0 μM", "method": "The cancer cell invasion assay was performed in a Cell Invasion Chamber, a 24-well tissue culture plate with cell culture inserts that contain an […] pore size polycarbonate membrane over a thin layer of dried ECMatrix™ (CHEMICON).\nTo determine the inhibitory effect of cobalt-polypyridyl complexes of the present invention in cancer cell invasion, human H1299 lung cancer cells with well-known cell invasion ability were treated with the cobalt-polypyridyl complex of Formula (IV) in its sub-lethal (non-toxic) doses."}},
  "note": "pIC50: −log10 of the molar value.",
  "data": [
    {"molecule": "Cc1ccnc(-c2cc(C)ccn2)c1.Cc1ccnc(-c2cc(C)ccn2)c1.Cc1ccnc(-c2cc(C)ccn2)c1.F[P-](F)(F)(F)(F)F.F[P-](F)(F)(F)(F)F.F[P-](F)(F)(F)(F)F.[Co+3]", "note": "[complex (IV), [Co^III(4,4′-Me2-Bpy)3.](PF6)3]", "values": [
      {"measurement": "LC3-I to LC3-II protein conversion", "setting": "[1]", "value": "dose-dependently increased the LC3-II protein conversion"},
      {"measurement": "pIC50", "setting": "A549 (lung cancer)", "value": 5.10},
      {"measurement": "pIC50", "setting": "MCF-7 (breast cancer)", "value": 5.22},
      {"measurement": "pIC50", "setting": "H1299 (lung cancer)", "value": 5.55},
      {"measurement": "pIC50", "setting": "[2]; OV2008/C13, MTT, 72 h", "value": 5.12},
      {"measurement": "Resistant Factor", "setting": "[2]; OV2008/C13 over OV2008", "value": 1.0},
      {"measurement": "pIC50", "setting": "[3]; A549, MTT, 72 h", "value": 5.55},
      {"measurement": "Resistant Factor", "setting": "[3]; A549, IC50 taxol-resistant over IC50 taxol-sensitive", "value": 0.25},
      {"measurement": "reduction in body weight", "setting": "[4]", "value": "no significant reduction in body weight"},
      {"measurement": "pIC50", "setting": "[5]", "value": 5.40},
      {"measurement": "cell invasion (fluorescence signal of invaded cells)", "setting": "[6]", "value": "dose-dependently decrease the cell fluorescence signal"}
    ]}
  ]
}
